Laboratory results taken from EP0538689A1, “Substituted 2,3-dihydropyrans, method for their preparation and their use as medicaments” (BAYER AG, priority 1991, dated 1993).
Counter-ions that a name gives are not always drawn.

Tested on: C. albicans
Experiment: Mouse candidosis model, antimycotic in vivo efficacy
Design: species or system Männliche CF₁-SPF-Mäuse
Conditions: mice infected i.v. with 1-3 x 10⁶ Sprosszellen von C. albicans, surviving/total animals
Protocol: Die erfindungsgemäßen Verbindungen wurden in den Applikationsarten i.v., s.c. und orale Gabe am Modell der Mäuse-Candidose auf ihre antimykotische in vivo-Wirksamkeit geprüft: Männliche CF₁-SPF-Mäuse wurden mit 1-3 x 10⁶ Sprosszellen von C. albicans pro Tier durch Injektion der Keimsuspension in phys. NaCl-Lösung (0,2 ml/Tier) in die Schwanzvene infiziert. Nicht behandelte Kontrolltiere entwickeln unter diesen Infektionsbedingungen eine Nierencandidose und sterben zu 95-100% der eingesetzten Tiere innerhalb 6 Tagen p.i. an dieser Infektion. Wurden infizierte Tiere täglich 2 mal, beginnend mit dem Tag der Infektion, mit den erfindungsgemäßen Verbindungen oral oder parenteral in Dosen 2 x 25 bis 2 x 50 mg/kg Körpergewicht über 2 - 5 Tage behandelt, so überleben 60-90% der Tiere die Infektion in gutem Zustand. Die C.albicans-Keimzahlen in den Nieren der infizierten und behandelten Tiere liegen am 4. Tag p.i. durchschnittlich um 2 Zehnerpotenzen unter denen von unbehandelten, infizierten Kontrolltieren. Tabelle A

| SMILES | Zahl der überl. Tiere (Dosis 2 × 50 mg/kg/d, App. po) | Zahl der überl. Tiere (Dosis 2 × 25 mg/kg/d, App. sc) |
| --- | --- | --- |
| COC(=O)[C@H]1OCC=C[C@H]1N [Beispiel 1, (2S,3R)-3-Amino-2,3-dihydro-6H-pyran-2-carbonsäuremethylester Hydrochlorid] | 7/10 |  |
| COC(=O)[C@H]1OCC=C[C@H]1NC(=O)OC(C)(C)C [Beispiel VII] | 8/10 |  |
| N[C@H]1C=CCO[C@H]1C(=O)O [Beispiel 17, (2R,3S)-3-Amino-2,3-dihydro-6H-pyran-2-carbonsäure-hydrochlorid] |  | 3/10 |
